Data reported in patent US5159114A, “ACAT inhibitory benzanilides” (Rhone-Poulenc Sante, priority 1989, dated 1992).

Columns and labels:
[1] = test system: plasma cholesterol; experiment: In vivo inhibition of increases in plasma cholesterol concentrations in rats fed a cholesterol-supplemented diet; design: species or system rat; conditions: diet supplemented with cholesterol/cholic acid and 0.03% w/w test compound, after 3 days, relative to control animals fed cholesterol diet without drug
[2] = test system: acyl coenzyme-A:cholesterol-O-acyl transferase (ACAT;EC 2.3.1.26); experiment: In vitro inhibition of ACAT in liver microsomes from cholesterol-fed rats, incubated with radiolabelled oleoyl-CoA; format: biochemical; conditions: 1 μg/ml, rat liver microsomes

Row | Compound | In-vitro % Inhibition (degree of ACAT inhibition) [2] [%] | In-vivo % Inhibition (of increases in plasma cholesterol concentrations) [1] [%]
1 | CCCCCCCCCCOc1ccc(C(=O)Nc2cc(C(=O)NCCCC)ccc2SC)cc1 [B, N-(2-methylthio-5-butylaminocarbonyl)phenyl-4-decyloxybenzamide] |  | 92
2 | CCCCCCCCCOc1ccc(C(=O)Nc2cc(C(=O)NCCSC)ccc2OC)cc1 [F, N-[2-methoxy-5-(2-methylthioethylaminocarbonyl)]phenyl-4-nonyloxybenzamide] | 87 | 
3 | CCCCCCCCCCSc1ccc(C(=O)Nc2cc(C(=O)NCCCC)ccc2OC)cc1 [G, N-(2-methoxy-5-butylaminocarbonyl)phenyl-4-(decylthio)benzamide] | 91 | 

The next lines start with results.

Row | In-vitro % Inhibition (degree of ACAT inhibition) [2] [%] | Compound | In-vivo % Inhibition (of increases in plasma cholesterol concentrations) [1] [%]
4 | 98 | CCCCCCCCCCOc1ccc(C(=O)Nc2cc(C(=O)NCCSC)ccc2SC)cc1 [C, N-[2-methylthio-5-(2-methylthioethylaminocarbonyl)]phenyl-4-decyloxybenzamide] | 91
5 | 82 | CCCCCCCCCCOc1ccc(C(=O)Nc2cc(C(=O)NCCOC)ccc2SC)cc1 [Compound A, N-[2-methylthio-5-(2-methoxyethylaminocarbonyl)]phenyl-4-decyloxybenzamide] | 100
6 | 94 | CCCCCCCCCCSc1ccc(C(=O)Nc2cc(C(=O)NCCSC)ccc2SC)cc1 [D, N-[2-methylthio-5-(2-methylthioethylaminocarbonyl)]phenyl-4-(decylthio)benzamide] | 100
7 | 83 | CCCCCCCCCCOc1ccc(C(=O)Nc2cc(C(=O)NCCSC)ccc2OC)cc1 [E, N-[2-methoxy-5-(2-methylthioethylaminocarbonyl)]phenyl-4-decyloxybenzamide] | 
